Laboratory results from PMC8745345, “Hydroxy Pentacyclic Triterpene Acid, Kaempferol, Inhibits the Human 5-Hydroxytryptamine Type 3A Receptor Activity” (International Journal of Molecular Sciences, 2022).

Biological target: T1, human 5-HT3A receptor E209A mutant (Homo sapiens, UniProt P46098, E231A)
T1 construct: expressed in transfected cells; host or cells: Xenopus oocytes injected with mutant mRNA
T1 sequence (P46098 24-478 E231A): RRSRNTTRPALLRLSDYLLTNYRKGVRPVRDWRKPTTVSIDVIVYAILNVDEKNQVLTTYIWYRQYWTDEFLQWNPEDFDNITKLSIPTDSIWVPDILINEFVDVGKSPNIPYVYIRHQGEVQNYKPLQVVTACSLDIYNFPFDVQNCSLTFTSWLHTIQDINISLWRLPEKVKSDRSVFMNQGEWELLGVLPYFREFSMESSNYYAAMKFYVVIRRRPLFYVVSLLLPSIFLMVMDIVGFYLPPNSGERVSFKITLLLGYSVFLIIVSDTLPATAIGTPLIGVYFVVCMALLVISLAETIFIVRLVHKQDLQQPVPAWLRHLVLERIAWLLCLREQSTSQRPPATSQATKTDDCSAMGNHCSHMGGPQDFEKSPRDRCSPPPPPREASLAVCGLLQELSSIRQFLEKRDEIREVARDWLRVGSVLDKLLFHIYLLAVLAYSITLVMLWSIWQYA
Assay: Two-electrode voltage clamp, I5-HT inhibition, E209A mutant
Assay type: cell-based
Experimental: Human 5-HT3A receptor cDNA was linearized using restriction enzyme XhoI. In vitro transcription was performed using an mMESSAGE mMACHINE T7 Transcription Kit (Thermo Fisher Scientific, Waltham, MA, USA). The final mRNA product was dissolved in 1X Diethyl Pyrocarbonate (RNase-free water) at a final concentration of 1 μg/μL and kept in a deep-freezer at −80 °C until used.
Xenopus oocytes were used in this study as cells for expression of human 5-HT3A receptor. All female frogs used in this experiment were obtained from the Korean Xenopus Resource Center for Research (KXRCR000001). […] Isolated oocytes were incubated with ND96 incubation buffer (96 mM NaCl, 2 mM KCl, 1 mM MgCl2, 1.8 mM CaCl2, 5 mM HEPES, 2.5 mM sodium pyruvate, and […], pH 7.4) at 18 °C until the experiment was performed. Human 5-HT3A receptor mRNA was injected into oocytes using a nanoinjector (Drummond Scientific, Broomall, PA, USA) with a mineral-filled 10 μL microdispenser (VWR, Piscataway, NJ, USA).
For the experiment, induced-inward current was converted to digital data with pClamp 10 software (Axon Instruments, Union City, CA, USA). All experiments were performed at room temperature using an oocyte clamp equipped with Digidata. The membrane holding potential was −80 mV.
The voltage relationship experiment for confirming the relationship between induce-inward current and voltage, the voltage was varied from −80 mV to +60 mV using a ramp protocol. Each microelectrode was filled with 3 M KCl having a resistance of 0.2 MΩ. Serotonin and KAE applied in the experiment were diluted in ND96 bath solution (96 mM NaCl, 2 mM KCl, 1 mM MgCl2, 1.8 mM CaCl2, and 5 mM HEPES, pH 7.5) to specified concentration. The rate of application of the reagent was 2 mL per minute. All recording data were analyzed using Clampfit 9.0 (Molecular Devices, San Jose, CA, USA). […]
All presented experiments were performed at least three times for scientific verification. […] Induced-inward current data were analyzed with SigmaPlot 10.0 software (Systat Software, Inc., San Jose, CA, USA).

Question: With `O=c1c(O)c(-c2ccc(O)cc2)oc2cc(O)cc(O)c12` [KAE, kaempferol] as the compound, how does the IC50 read?
Answer: 55.1 ± 5.8 µM

Question: What about the Vmax (E209A, −80 mV) of the same compound?
Answer: 81.1 ± 9.7%

Question: What about the “n (Hill coefficient)” value (E209A, −80 mV) of the same compound?
Answer: 1.7 ± 0.6
